In patent US9155302B2, “Active substance combinations” (priority 2005, dated 2015):

Assays:
[1] = test system: Phaedon cochleariae; assay: Phaedon cochleariae test, dipped cabbage leaves
[2] = test system: Myzus persicae; assay: Myzus persicae test, dipped cabbage leaves; type: in vivo; details: 100 ppm, after 6 d
Method: The determined kill rates are calculated using Colby's formula (see sheet 1).

[3] = test system: Plutella xylostella; assay: Plutella xylostella test, dipped cabbage leaves; type: in vivo; details: after 6 d
[4] = test system: Botrytis cinerea; assay: Botrytis cinerea test (in vitro)/microtitre plates; type: cell-based; details: 3 ppm, after 5 d
Method: (§1) The microtest is carried out in microtitre plates using potato dextrose broth (PDB) as liquid test medium. The active compounds are applied as technical-grade a.i., dissolved in acetone. A spore suspension of Botrytis cinerea is used for inoculation. After 5 days of incubation in the dark and with shaking (10 Hz), the transparency in each filled cavity of the microtitre plates is determined with the aid of a spectrophotometer.
(§2) 0% means an efficacy which corresponds to the growth in the controls, whereas an efficacy of 100% means that no fungal growth is observed.

[5] = test system: Alternaria mali; assay: Alternaria mali test (in vitro)/microtitre plates; type: cell-based; details: 3 ppm, after 4 d
Method: as §1, with “PDB)” for “(PDB)”, “Alternaria mali” for “Botrytis cinerea”, “4” for “5”
as §2

## spinosad [(5.1.1) spinosad]
[1]; 0.8 ppm, after 6 d
  Kill rate in % after d, found: 80%

## N#Cc1nn(-c2c(Cl)cc(C(F)(F)F)cc2Cl)c(N)c1[S+]([O-])C(F)(F)F (stereo not drawn) [(6.2.1) fipronil, fipronil]
[2]
  Kill rate in % after d, found: 65%

## CNC(=O)Oc1cc(C)c(SC)c(C)c1 [(3.1.1) methiocarb, methiocarb]
[2]
  Kill rate in % after d, found: 0%

## O=[N+]([O-])NC1=NCCN1Cc1ccc(Cl)nc1 [(2.1.2) imidacloprid, imidacloprid]
[3]; 4 ppm
  Kill rate in % after d, found: 20%
[4]
  Efficacy in % after d, found: 3%
[1]; 0.8 ppm, after 6 d
  Kill rate in % after d, found: 40%

## CN/C(=N\[N+](=O)[O-])NCc1cnc(Cl)s1 [(2.1.1) clothianidin, clothianidin]
[3]; 20 ppm
  Kill rate in % after d, found: 20%
[5]
  Kill rate in % after d, found: 8%
[1]; 0.8 ppm, after 6 d
  Kill rate in % after d, found: 0%

## Cc1nn(C)c(F)c1C(=O)Nc1ccccc1C(C)CC(C)C (stereo not drawn) [(1-2), N-[2-(1,3-dimethylbutyl)phenyl]-5-fluoro-1,3-dimethyl-1H-pyrazole-4-carboxamide]
[2]
  Kill rate in % after d, found: 0%
[4]
  Efficacy in % after d, found: 16%
[5]
  Kill rate in % after d, found: 48%
[1]; 100 ppm, after 4 d
  Kill rate in % after d, found: 0%
[1]; 100 ppm, after 6 d
  Kill rate in % after d, found: 0%

## CS/C(C)=N\OC(=O)N(C)SN(C)C(=O)O/N=C(\C)SC [(3.1.2) thiodicarb, thiodicarb]
[1]; 100 ppm, after 4 d
  Kill rate in % after d, found: 0%
